In US12110305B2, “Prodrugs of phosphonamide nucleotide analogues and their pharmaceutical use” (priority 2020, dated 2024) one finds EC50 data, which are given here for 24 compounds.

pEC50: −log10 of the molar value.

This assay deals with HIV-1 (IIIB). Description: Antiviral (HIV) assay in MT-4 cells. Format: cell-based. As to conditions: Human immunodeficiency virus 1, MT4, 120 h; HIV-1 IIIB in MT-4 cells, 5 days incubation, Cell Titer Glo; average of at least two independent experiments. The essentials:
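MT-4 cells, infected with HIV-1 IIIB (1:250 dilution of concentrated stock) or mock-infected, were exposed to 1:3 serially diluted compounds in RPMI with 10% FBS. After 5 days at 37° C., CellTiter-Glo luminescence was read. EC50 = concentration causing […], from sigmoidal dose-response fits.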
A general note: In ATP-based viability assays light output follows the ATP content of the culture.
Take `CCCCCOC(=O)C(C)(C)NP(=O)(CO[C@H](C)Cn1cnc2c(N)ncnc21)NC(C)(C)C(=O)OCCCCC` [Example 4, Dipentyl 2,2′-(((((1-(6-amino-9H-purin-9-yl)propan-2-yl)oxy)methyl)phosphoryl)bis(azanediyl))(R)-bis(2-methylpropanoate)]: the pEC50 (as a rule, −log10 of the EC50, conventionally taken in molar units) is 8.22. For `CCCCCCOC(=O)C(C)(C)NP(=O)(CO[C@H](C)Cn1cnc2c(NC(=O)OC(C)(C)CC(=O)OCc3oc(=O)oc3C)ncnc21)NC(C)(C)C(=O)OCCCCCC` [Example 101, Dihexyl 2,2′-(((((1-(6-((((2-methyl-4-((5-methyl-2-oxo-1,3-dioxol-4-yl)methoxy)-4-oxobutan-2-yl)oxy)carbonyl)amino)-9H-purin-9-yl)propan-2-yl)oxy)methyl)phosphoryl)bis(azanediyl))(R)-bis(2-methylpropanoate)], the pEC50 is 7.92.

`CCCCCCOC(=O)C(C)(C)NP(=O)(CO[C@H](C)Cn1cnc2c(N)ncnc21)NC(C)(C)C(=O)OCC(C)(C)OC` (stereo partly drawn) [Example 79, Hexyl 2-((((((R)-1-(6-amino-9H-purin-9-yl)propan-2-yl)oxy)methyl)((1-(2-methoxy-2-methylpropoxy)-2-methyl-1-oxopropan-2-yl)amino)phosphoryl)amino)-2-methylpropanoate] showed a pEC50 of 6.57. The figure for `CCC[C@H]1CC[C@H](OC(=O)C(C)(C)NP(=O)(CO[C@H](C)Cn2cnc3c(N)ncnc32)NC(C)(C)C(=O)O[C@H]2CC[C@H](CCC)CC2)CC1` [Example 27] is 7.59.

The compound `CCCCCCOC(=O)C(C)(C)NP(=O)(CO[C@H](C)Cn1cnc2c(N)ncnc21)NC(C)(C)C(=O)OCC12CCC(CC1)C2` (stereo partly drawn) [Example 80, Bicyclo[2.2.1]heptan-1-ylmethyl 2-((((((R)-1-(6-amino-9H-purin-9-yl)propan-2-yl)oxy)methyl)((1-(hexyloxy)-2-methyl-1-oxopropan-2-yl)amino)phosphoryl)amino)-2-methylpropanoate] had a pEC50 of less than 6.30. `CC(C)OC(=O)C(C)(C)NP(=O)(CO[C@H](C)Cn1cnc2c(N)ncnc21)NC(C)(C)C(=O)OC(C)C` [Example 43, Diisopropyl 2,2′-(((((1-(6-amino-9H-purin-9-yl)propan-2-yl)oxy)methyl)phosphoryl)bis(azanediyl))(R)-bis(2-methylpropanoate)] showed a pEC50 of 7.70. The figure for `CCCCCCOC(=O)C(C)(C)NP(=O)(CO[C@H](C)Cn1cnc2c(N)ncnc21)NC(C)(C)C(=O)OCCCCCC` [Example 1, Dihexyl 2,2′-(((((1-(6-amino-9H-purin-9-yl)propan-2-yl)oxy)methyl)phosphoryl)bis(azanediyl))(R)-bis(2-methylpropanoate)] is 8.30.

On to `C[C@H](Cn1cnc2c(N)ncnc21)OCP(=O)(NC(C)(C)C(=O)OC1CCCC1)NC(C)(C)C(=O)OC1CCCC1` [Example 34, Dicyclopentyl 2,2′-(((((1-(6-amino-9H-purin-9-yl)propan-2-yl)oxy)methyl)phosphoryl)bis(azanediyl))(R)-bis(2-methylpropanoate)], for which the pEC50 is 8.52.

On to `CCC(C)(C)CCOC(=O)C(C)(C)NP(=O)(CO[C@H](C)Cn1cnc2c(N)ncnc21)NC(C)(C)C(=O)OCCC(C)(C)CC` [Example 54, Bis(3,3-dimethylpentyl) 2,2′-(((((1-(6-amino-9H-purin-9-yl)propan-2-yl)oxy)methyl)phosphoryl)bis(azanediyl))(R)-bis(2-methylpropanoate)], for which the pEC50 was 8.40.

For `CCCCCCOC(=O)[C@](C)(CC)NP(=O)(CO[C@H](C)Cn1cnc2c(N)ncnc21)N[C@@](C)(CC)C(=O)OCCCCCC` [Example 10, Dihexyl 2,2′-((((((R)-1-(6-amino-9H-purin-9-yl)propan-2-yl)oxy)methyl)phosphoryl)bis(azanediyl))(2S,2'S)-bis(2-methylbutanoate)], the pEC50 is 7.43. In turn, `C[C@H](Cn1cnc2c(N)ncnc21)OCP(=O)(NC(C)(C)C(=O)OC1CC(C)(C)C1)NC(C)(C)C(=O)OC1CC(C)(C)C1` [Example 42, Bis(3,3-dimethylcyclobutyl) 2,2′-(((((1-(6-amino-9H-purin-9-yl)propan-2-yl)oxy)methyl)phosphoryl)bis(azanediyl))(R)-bis(2-methylpropanoate)] gave a pEC50 of 8.70.

As to `C[C@H](Cn1cnc2c(N)ncnc21)OCP(=O)(NC(C)(C)C(=O)OCC1CC2(C1)CC(F)(F)C2)NC(C)(C)C(=O)OCC1CC2(C1)CC(F)(F)C2` [Example 58, Bis((6,6-difluorospiro[3.3]heptan-2-yl)methyl) 2,2′-(((((1-(6-amino-9H-purin-9-yl)propan-2-yl)oxy)methyl)phosphoryl)bis(azanediyl))(R)-bis(2-methylpropanoate)], the pEC50 was 8.30. The compound `C[C@H](Cn1cnc2c(N)ncnc21)OCP(=O)(NC(C)(C)C(=O)O[C@H]1C[C@@H](c2ccccc2)C1)NC(C)(C)C(=O)O[C@H]1C[C@@H](c2ccccc2)C1` [Example 85, Bis((1s,3S)-3-phenylcyclobutyl) 2,2′-((((((R)-1-(6-amino-9H-purin-9-yl)propan-2-yl)oxy)methyl)phosphoryl)bis(azanediyl))bis(2-methylpropanoate)] showed a pEC50 of 8.30. Regarding `CCCCCCOC(=O)C(C)(C)NP(=O)(CO[C@H](C)Cn1cnc2c(NC(=O)[C@H]3CCC(=O)O3)ncnc21)NC(C)(C)C(=O)OCCCCCC` [Example 96, Dihexyl 2,2′-((((((R)-1-(6-((R)-5-oxotetrahydrofuran-2-carboxamido)-9H-purin-9-yl)propan-2-yl)oxy)methyl)phosphoryl)bis(azanediyl))bis(2-methylpropanoate)], the pEC50 is 7.96.

`CC(C)COC(=O)C(C)(C)NP(=O)(CO[C@H](C)Cn1cnc2c(N)ncnc21)NC(C)(C)C(=O)OCC(C)C` [Example 35, Diisobutyl 2,2′-(((((1-(6-amino-9H-purin-9-yl)propan-2-yl)oxy)methyl)phosphoryl)bis(azanediyl))(R)-bis(2-methylpropanoate)] gave a pEC50 of 8.30. The figure for `C[C@H](Cn1cnc2c(N)ncnc21)OCP(=O)(NC(C)(C)C(=O)OC1CCC2(CCC2)CC1)NC(C)(C)C(=O)OC1CCC2(CCC2)CC1` (stereo partly drawn) [Example 63, Di(spiro[3.5]nonan-7-yl) 2,2′-(((((1-(6-amino-9H-purin-9-yl)propan-2-yl)oxy)methyl)phosphoryl)bis(azanediyl))(R)-bis(2-methylpropanoate)] is 8.15; for `CCCCCCCCOC(=O)C(C)(C)NP(=O)(CO[C@H](C)Cn1cnc2c(N)ncnc21)NC(C)(C)C(=O)OCCCCCCCC` [Example 39, Dioctyl 2,2′-(((((1-(6-amino-9H-purin-9-yl)propan-2-yl)oxy)methyl)phosphoryl)bis(azanediyl))(R)-bis(2-methylpropanoate)] it is 7.62. For the compound `CCC1(CC)CC(OC(=O)C(C)(C)NP(=O)(CO[C@H](C)Cn2cnc3c(N)ncnc32)NC(C)(C)C(=O)OC2CC(CC)(CC)C2)C1` [Example 49, Bis(3,3-diethylcyclobutyl) 2,2′-(((((1-(6-amino-9H-purin-9-yl)propan-2-yl)oxy)methyl)phosphoryl)bis(azanediyl))(R)-bis(2-methylpropanoate)], the pEC50 was 8.30. Consider `C[C@H](Cn1cnc2c(N)ncnc21)OCP(=O)(N[C@@](C)(Cc1ccccc1)C(=O)OCC1CCCCC1)N[C@@](C)(Cc1ccccc1)C(=O)OCC1CCCCC1` [Example 15, Bis(cyclohexylmethyl) 2,2′-((((((R)-1-(6-amino-9H-purin-9-yl)propan-2-yl)oxy)methyl)phosphoryl)bis(azanediyl))(2S,2'S)-bis(2-methyl-3-phenylpropanoate)], for which the negative logarithm of the EC50 (pEC50) is 7.77. The figure for `CCC(CC)COC(=O)C(C)(C)N[P@@](=O)(CO[C@H](C)Cn1cnc2c(N)ncnc21)NC1(C(=O)OCC(CC)CC)CC1` [Example 72, 2-Ethylbutyl 1-(((S)-((((R)-1-(6-amino-9H-purin-9-yl)propan-2-yl)oxy)methyl)((1-(2-ethylbutoxy)-2-methyl-1-oxopropan-2-yl)amino)phosphoryl)amino)cyclopropane-1-carboxylate] is 7.80; for `CCC(CC)COC(=O)C(C)(C)NP(=O)(CO[C@H](C)Cn1cnc2c(N)ncnc21)NC(C)(C)C(=O)OCC(CC)CC` [Example 2, Bis(2-ethylbutyl) 2,2′-(((((1-(6-amino-9H-purin-9-yl)propan-2-yl)oxy)methyl)phosphoryl)bis(azanediyl))(R)-bis(2-methylpropanoate)] it is 8.40; for `C[C@H](Cn1cnc2c(N)ncnc21)OCP(=O)(NC(C)(C)C(=O)O[C@@H](C)C1CCCCC1)NC(C)(C)C(=O)O[C@@H](C)C1CCCCC1` [Example 56, Bis((S)-1-cyclohexylethyl) 2,2′-((((((R)-1-(6-amino-9H-purin-9-yl)propan-2-yl)oxy)methyl)phosphoryl)bis(azanediyl))bis(2-methylpropanoate)] it is 6.75.

Compound `CCCCCCOC(=O)[C@](C)(Cc1ccccc1)NP(=O)(CO[C@H](C)Cn1cnc2c(N)ncnc21)N[C@@](C)(Cc1ccccc1)C(=O)OCCCCCC` [Example 11, Dihexyl 2,2′-((((((R)-1-(6-amino-9H-purin-9-yl)propan-2-yl)oxy)methyl)phosphoryl)bis(azanediyl))(2S,2'S)-bis(2-methyl-3-phenylpropanoate)] gave a pEC50 of 7.77. The figure for `C[C@H](Cn1cnc2c(N)ncnc21)OCP(=O)(NC(C)(C)C(=O)OCC1CCC(F)(F)CC1)NC(C)(C)C(=O)OCC1CCC(F)(F)CC1` [Example 88, Bis((4,4-difluorocyclohexyl)methyl) 2,2′-(((((1-(6-amino-9H-purin-9-yl)propan-2-yl)oxy)methyl)phosphoryl)bis(azanediyl))(R)-bis(2-methylpropanoate)] is 8.52.
